Columns and labels:
Type in all cases: cell-based, mouse
[1] = tested on: primary murine fibroblasts overexpressing EYA1A; assay: Proliferative activity of primary murine fibroblasts overexpressing EYA1A; conditions: seeded at 60,000 per well
Source text: FIGS. 12A-12B show the effect of the established EYA1 γH2A.X^[…] tyrosine phosphatase inhibitors Na3VO4 (blocking tyrosine phosphatase activity) and caffeine (blocking ATM-dependent recruitment of EYA1 towards γH2A.X) on γH2A.X^[…] dephosphorylation and fibroblast accumulation. FIG. 12A depicts results of an analysis of photomicrographs of primary murine fibroblast cultures transfected with control plasmids (vector) and plasmids overexpressing […]) or EYA1C (EYA1C^oe). […] FIG. 12B depicts results of an analysis of proliferative activity of primary murine fibroblasts transfected with indicated constructs, seeded at a density of 60,000 per well.

[2] = tested on: primary murine fibroblast cultures overexpressing EYA1A; assay: γH2A.X^pY142 labelling after NCS exposure in fibroblasts overexpressing EYA1A; conditions: 60 minutes after NCS exposure
Source text: (§1) FIGS. 12A-12B show the effect of the established EYA1 γH2A.X^pY142 tyrosine phosphatase inhibitors Na3VO4 (blocking tyrosine phosphatase activity) and caffeine (blocking ATM-dependent recruitment of EYA1 towards γH2A.X) on γH2A.X^pY142 dephosphorylation and fibroblast accumulation. FIG. 12A depicts results of an analysis of photomicrographs of primary murine fibroblast cultures transfected with control plasmids (vector) and plasmids overexpressing EYA1A (EYA1A^oe) or EYA1C (EYA1C^oe). Cells were exposed to either Na3VO4 or caffeine and labelled for 7H2A.X^pY142 60 minutes after NCS exposure (n=100 nuclei each, data are presented as means±s.d., **p<0.01, # no significance, values of p were calculated using Student's t test comparing indicated groups). FIG. 12B depicts results of an analysis of proliferative activity of primary murine fibroblasts transfected with indicated constructs, seeded at a density of 60,000 per well. Proliferative activity was determined at indicated time points after exposure to Na3VO4 or caffeine (n=3 independent replicates, data are presented as means±s.d., ***p<0.001, ****p<0.0001, values of p were calculated using one-way ANOVA with Bonferroni post-hoc analysis comparing control and Na3VO4^− or caffeine-treated cultures overexpressing EYA1A). […]

[3] = tested on: primary murine fibroblast cultures overexpressing EYA1C; assay: γH2A.X^pY142 labelling after NCS exposure in fibroblasts overexpressing EYA1C; conditions: 60 minutes after NCS exposure
Source text: as §1

Compound | EYA1A-induced fibroblast accumulation [1] | EYA1A-induced premature γH2A.X^pY142 dephosphorylation [2] | γH2A.X^pY142 in EYA1C overexpressing cells [3]
[Na+].[Na+].[Na+].[O]=[V]([O-])([O-])[O-] [Na3VO4, sodium orthovanadate] | reversed | reversed | neither Na3VO4 nor caffeine affected
Cn1c(=O)c2c(ncn2C)n(C)c1=O [caffeine] | reversed | reversed | neither Na3VO4 nor caffeine affected

From patent US11331333B2, “Treatment of aberrant fibroblast proliferation” (Georg August Universitaet Goettingen Stiftung Oeffentlichen …, priority 2019, dated 2022)
